For 19 compounds, IC50 results are on record in patent US20130225591A1, “IMIDOTHIAZOLE KINASE INHIBITORS” (priority 2009, published 2013).

As a reminder, the IC50 is the concentration at which inhibition is half-maximal.

T1 sequence (Q00535 whole entry): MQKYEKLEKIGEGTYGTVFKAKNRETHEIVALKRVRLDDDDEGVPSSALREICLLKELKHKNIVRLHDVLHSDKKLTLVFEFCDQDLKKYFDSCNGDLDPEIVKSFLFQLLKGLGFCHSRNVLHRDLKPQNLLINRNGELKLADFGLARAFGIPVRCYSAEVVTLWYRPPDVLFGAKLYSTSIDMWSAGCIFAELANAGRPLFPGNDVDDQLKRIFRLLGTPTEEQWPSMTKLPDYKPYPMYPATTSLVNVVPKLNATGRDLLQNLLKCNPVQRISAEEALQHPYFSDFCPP
T1 sequence (Q15078 99-307 partner limits assumed): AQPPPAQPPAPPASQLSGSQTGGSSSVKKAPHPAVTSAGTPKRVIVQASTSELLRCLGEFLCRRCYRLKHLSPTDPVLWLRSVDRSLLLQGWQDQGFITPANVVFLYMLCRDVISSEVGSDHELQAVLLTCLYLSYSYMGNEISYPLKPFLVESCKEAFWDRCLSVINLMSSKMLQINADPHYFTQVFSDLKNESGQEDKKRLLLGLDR

The first assay addresses T1, CDK5-p25 kinase (Homo sapiens, UniProt Q00535).
T1 construct: purchased Invitrogen PV4677
Briefly: CDK5-p25 kinase enzymatic assay. The format is biochemical. The note with it: 50 nM-99 nM; 5 uM ATP, 0.3 nM CDK5-p25; read-out: IC50 potency, CDK5-p25 kinase enzymatic assay, 50 nM-99 nM. On the procedure: CDK5-p25 kinase (Invitrogen PV4677) enzymatic activity was measured using electrophoretic separation and fluorescent detection to monitor phosphorylation of a fluorescently labeled histone H1-derived peptide substrate, FL29 (5-FAM-GGGPATPKKAKKL-CONH2, Caliper #760429)
First, 0.25 uL of serially diluted compound in DMSO at 100× concentration was transferred into each well of a 384-well polystyrene assay plate. To this was added 15 uL of a 1.67× enzyme solution (500 pM enzyme, 1 mM DTT (Sigma D9779), 1× reconstitution buffer with protease inhibitor (Caliper #700329 proprietary formulation)), followed by centrifugation for 1 min at 1000 rpm, and incubation for 5-15 min at room temperature to allow binding of compound to enzyme. To initiate the reaction, 10 uL of substrate/ATP mix (245 mM Hepes pH 7.5, 0.003% Brij 35, 0.004% Tween, 12.75 uM ATP, 3.75 uM FL29 peptide) were added to each well, followed by centrifugation at 1000 rpm for 1 min. The reaction was then incubated at room temperature for 30 min. Final assay conditions were: 0.3 nM CDK5-p25, 1.5 uM peptide, 5 uM ATP, 0.6 mM DTT, 1% DMSO, 98 mM HEPES pH 7.5.
After incubation, reactions were quenched by the addition of 45 uL Caliper termination solution (Caliper proprietary formula), followed by centrifugation at 1000 rpm for 1 min. Extent of reaction (percentage conversion of substrate to phosphorylated product) was then measured using the Caliper EZ II reader. Dose-response curves were created by plotting the inhibition of enzyme activity (normalized relative to vehicle treated and no ATP control reactions) as a function of the log of compound concentration. The curve was analyzed using a four parameter logistical fit to calculate IC50 values.
`O=C(Cc1ccc(CO)cc1)Nc1ncn2c(C(F)(F)F)csc12` [Example 71, 2-[4-(hydroxymethyl)phenyl]-N-[3-(trifluoromethyl)imidazo[5,1-b][1,3]thiazol-7-yl]acetamide]: the concentration for half-maximal inhibition (IC50) is 50 to 99 nM.
Still for that read-out and setting: the same measure for `O=C(Cc1ccc(C(=O)N2CCCC2)cc1)Nc1ncn2c(C(F)(F)F)csc12` [Example 74, 2-[4-(pyrrolidin-1-ylcarbonyl)phenyl]-N-[3-(trifluoromethyl)imidazo[5,1-b][1,3]thiazol-7-yl]acetamide]: 50 to 99 nM.

The assay is the same for the next values; noted with them: 500 nM-3 μM; 5 uM ATP, 0.3 nM CDK5-p25; read-out: IC50 potency, CDK5-p25 kinase enzymatic assay, 500 nM-3 μM.
`Cc1csc2c(NC(=O)Cc3ccc4ccccc4c3)ncn12` [Example 65, N-(3-methylimidazo [5,1-b][1,3]thiazol-7-yl)-2-(2-naphthyl) acetamide]: the IC50 is 500 to 3000 nM.
Same read-out and setting: the same measure for `O=C(Nc1ncn2c(C(F)(F)F)csc12)C(CO)c1ccc2ccccc2c1` (centres unmarked) [Example 67, 3-hydroxy-2-(2-naphthyl)-N-[3-(trifluoromethyl)imidazo[5,1-b][1,3]thiazol-7-yl]propanamide]: 500 to 3000 nM.
The same measure, in the same setting: the same measure for `O=C(Cc1ccc2ccccc2c1)Nc1ncn2ccsc12` [Example 82, N-imidazo[5,1-b][1,3]thiazol-7-yl-2-(2-naphthyl)acetamide]: 500 to 3000 nM.
On the same count and under the same terms, the same measure for `N#Cc1csc2c(NC(=O)Cc3ccc4ccccc4c3)ncn12` [Example 84, N-(3-cyanoimidazo[5,1-b][1,3]thiazol-7-yl)-2-(naphthalen-2-yl)acetamide]: 500 to 3000 nM.

The assay is the same for the next values; noted with them: 5 uM ATP, 0.3 nM CDK5-p25; read-out: IC50 potency, CDK5-p25 kinase enzymatic assay, 100 nM-499 nM.
Regarding `O=C(CN1Cc2ccccc2C1)Nc1ncn2c(C(F)(F)F)csc12` [Example 68, 2-(1,3-dihydro-2H-isoindol-2-yl)-N-[3-(trifluoromethyl)imidazo[5,1-b][1,3]thiazol-7-yl]acetamide], the IC50 is 100 to 499 nM.
Same read-out and setting: under `O=C(Cc1ccnnc1)Nc1ncn2c(C(F)(F)F)csc12` [Example 72, 2-pyridazin-4-yl-N-[3-(trifluoromethyl)imidazo[5,1-b][1,3]thiazol-7-yl]acetamide] stands 100 to 499 nM.
Same read-out and setting: under `NCc1cccc(CC(=O)Nc2ncn3c(C(F)(F)F)csc23)c1` [Example 75, 2-[3-(aminomethyl)phenyl]-N-[3-(trifluoromethyl)imidazo[5,1-b][1,3]thiazol-7-yl]acetamide] stands 100 to 499 nM.

The same assay, now with this note: '<50 nM'; 5 uM ATP, 0.3 nM CDK5-p25; read-out: IC50 potency, CDK5-p25 kinase enzymatic assay, <50 nM.
Take `O=C(Cc1cccc2ccccc12)Nc1ncn2c(C(F)(F)F)csc12` [Example 66, 2-(1-naphthyl)-N-[3-(trifluoromethyl)imidazo[5,1-b][1,3]thiazol-7-yl]acetamide]: the IC50 was < 50 nM.
For the compound `Cc1nc2cc(CC(=O)Nc3ncn4c(C(F)(F)F)csc34)ccc2o1` [Example 69, 2-(2-methyl-1,3-benzoxazol-5-yl)-N-[3-(trifluoromethyl)imidazo[5,1-b][1,3]thiazol-7-yl]acetamide], the 50% inhibitory concentration (IC50) is < 50 nM.
The same measure, in the same setting: under `O=C(Cc1ccc(-c2nnco2)cc1)Nc1ncn2c(C(F)(F)F)csc12` [Example 70, 2-[4-(1,3,4-oxadiazol-2-yl)phenyl]-N-[3-(trifluoromethyl)imidazo[5,1-b][1,3]thiazol-7-yl]acetamide] stands < 50 nM; under `O=C(Cc1ccc2[nH]cnc2c1)Nc1ncn2c(C(F)(F)F)csc12` [Example 73, 2-(1H-benzimidazol-5-yl)-N-[3-(trifluoromethyl)imidazo[5,1-b][1,3]thiazol-7-yl]acetamide], < 50 nM; under `O=C(Cc1ccc(NC(=O)c2ccccc2)cc1)Nc1ncn2c(C(F)(F)F)csc12` [Example 79, N-[4-(2-oxo-2-{[3-(trifluoromethyl)imidazo[5,1-b][1,3]thiazol-7-yl)amino}ethyl)phenyl] benzamide], < 50 nM.
The same measure, in the same setting: the same measure for `O=C(Cc1cccc(-c2nn[nH]n2)c1)Nc1ncn2c(C(F)(F)F)csc12` [Example 80, 2-[3-(2H-tetrazol-5-yl)phenyl]-N-[3-(trifluoromethyl)imidazo[5,1-b][1,3]thiazol-7-yl]acetamide]: < 50 nM; for `O=C(Cc1ccc(-c2nn[nH]n2)cc1)Nc1ncn2c(C(F)(F)F)csc12` [Example 81, 2-[4-(2H-tetrazol-5-yl)phenyl]-N-[3-(trifluoromethyl)imidazo[5,1-b][1,3]thiazol-7-yl]acetamide]: < 50 nM.
The same measure, in the same setting: the same measure for `O=C(Cc1ccc2ccccc2c1)Nc1ncn2ccsc12` [Example 82, N-imidazo[5,1-b][1,3]thiazol-7-yl-2-(2-naphthyl)acetamide]: < 50 nM.
As to `O=C(Cc1ccc2ccccc2c1)Nc1ncn2c(Br)csc12` [Example 83, N-(3-Bromoimidazo[5,1-b][1,3]thiazol-7-yl)-2-(naphthalen-2-yl)acetamide], the IC50 is < 50 nM.
The same measure, in the same setting: under `O=C(Cc1ccc2ccccc2c1)Nc1ncn2c(C(F)(F)F)c(C(=O)O)sc12` [Example 85, 7-[(Naphthalen-2-ylacetyl)amino]-3-(trifluoromethyl)imidazo[5,1-b][1,3]thiazole-2-carboxylic Acid] stands < 50 nM; under `NC(=O)c1sc2c(NC(=O)Cc3ccc4ccccc4c3)ncn2c1C(F)(F)F` [Example 86, 7-[(Naphthalen-2-ylacetyl)amino]-3-(trifluoromethyl)imidazo[5,1-b][1,3]thiazole-2-carboxyamide], < 50 nM.
